Structures can show the parent of a compound that is named as a salt.
Row | SMILES | melting point
1 | N#Cc1ccc(NC2CCN(Cc3cccc(C(F)(F)F)c3)CC2)nc1 | 111.6 °C
2 | N#Cc1ccc(NC2CCN(Cc3cc(F)cc(C(F)(F)F)c3)CC2)nc1 | 198.8 °C
3 | N#Cc1ccc(NC2CCN(Cc3cc(F)cc(F)c3)CC2)nc1 | 102.6 °C
4 | N#Cc1ccc(NC2CCN(Cc3cc(F)c(F)c(F)c3)CC2)nc1 | 129.5 °C
5 | N#Cc1cccc(NC2CCN(Cc3cc(F)cc(C(F)(F)F)c3)CC2)n1 | 115.2 °C
6 | Fc1ccc(CN2CCC(Nc3ccc(C(F)(F)F)cn3)CC2)cc1F (as salt: hydrochloric acid salt) | 268.7 °C

From patent US20100137368A1, “PYRIDINE DERIVATIVES AS FAST DI[…] 2 RECEPTOR ANTAGONISTS” (JANSSEN PHARMACEUTICA N.V., priority 2007, published 2010)
